Laboratory results reported in patent publication US20090047310A1, “Use of a griffonia extract, in particular griffonia simplicifolia, in a cosmetic or dermatological composition for mitigating pigmentation of skin and skin appendages” (priority 2005, published 2009).

System: Normal human melanocytes
Assay: Melanogenesis: quantity of melaninic pigments in cultured normal human melanocytes
Assay type: cell-based
Settings: ten days culture
Procedure: Normal human melanocytes are cultured for ten days in the absence and in the presence of non-cytotoxic quantities of the dry extract. The quantity of melaninic pigments is evaluated by extraction using 0.5 N soda and optical density measurement.
The procedure is as before for the dry extract.
The procedure is as before for the dry extract using 5-HTP extracted from the seeds of Griffonia simplicifolia.

N[C@@H](Cc1c[nH]c2ccc(O)cc12)C(=O)O [5-HTP, 5-hydroxytryptophan]
quantity of melanin produced by the melanocytes, % of the control (0.0016 mg/ml, p less than 0.05): 93%
quantity of melanin produced by the melanocytes, % of the control (0.008 mg/ml, p less than 0.01): 89%
quantity of melanin produced by the melanocytes, % of the control (0.04 mg/ml, p less than 0.01): 80%
